Data reported in patent US11427549B2, “Pyrimidinyloxy benzo-fused compounds as herbicides” (FMC Corporation, priority 2017, dated 2022).

Tests used:
[1] = tested on: ducksalad (Heteranthera limosa); experiment: Test B flooded paddy test, ducksalad; conditions: Heteranthera limosa, read-out: Plant response rating, Ducksalad (0 to 100 scale, 0 is no effect, 100 is complete control)
[2] = tested on: ragweed (common ragweed, Ambrosia elatior); experiment: Test A postemergence, ragweed; format: in vivo; conditions: Ambrosia artemisiifolia, post-emergence, 240 h, 0 to 100 scale (0 no effect, 100 complete control), read-out: Plant response rating, Ragweed; for pest or weed control at 31 g/ha: 31 g ai/ha; for pest or weed control at 125 g/ha: 125 g ai/ha
From the text: (§1) Seeds of plant species selected from barnyardgrass (Echinochloa crus-galli), kochia (Kochia scoparia), ragweed (common ragweed, Ambrosia elatior), ryegrass, Italian (Italian ryegrass, Lolium multiflorum), foxtail, giant (giant foxtail, Setaria faberii), foxtail, green (green foxtail, Setaria viridis) and pigweed (Amaranthus retroflexus) were planted into a blend of loam soil and sand and treated preemergence with a directed soil spray using test chemicals formulated in a non-phytotoxic solvent mixture which included a surfactant.
(§2) At the same time, plants selected from these weed species and also wheat (Triticum aestivum), corn (Zea mays), blackgrass (Alopecurus myosuroides), and galium (catchweed bedstraw, Galium aparine) were planted in pots containing the same blend of loam soil and sand and treated with postemergence applications of test chemicals formulated in the same manner. Plants ranged in height from 2 to 10 cm and were in the one- to two-leaf stage for the postemergence treatment. Treated plants and untreated controls were maintained in a greenhouse for approximately 10 days, after which time all treated plants were compared to untreated controls and visually evaluated for injury. […] A dash (-) response means no test result.

[3] = tested on: galium (catchweed bedstraw, Galium aparine); experiment: Test A postemergence, galium; format: in vivo; conditions: Galium, post-emergence, 240 h, 0 to 100 scale (0 no effect, 100 complete control), read-out: Plant response rating, Galium; for pest or weed control at 31 g/ha: 31 g ai/ha; for pest or weed control at 125 g/ha: 125 g ai/ha
From the text: as §1, §2

[4] = tested on: kochia (Kochia scoparia); experiment: Test A postemergence, kochia; format: in vivo; conditions: Bassia scoparia, post-emergence, 240 h, 0 to 100 scale (0 no effect, 100 complete control), read-out: Plant response rating, Kochia; for pest or weed control at 31 g/ha: 31 g ai/ha; for pest or weed control at 125 g/ha: 125 g ai/ha
From the text: as §1, §2

[5] = tested on: ragweed (common ragweed, Ambrosia elatior); experiment: Test A preemergence, ragweed; format: in vivo; conditions: Ambrosia artemisiifolia, pre-emergence, 240 h, 0 to 100 scale (0 no effect, 100 complete control), read-out: Plant response rating, Ragweed
From the text: as §1, §2

[6] = tested on: blackgrass (Alopecurus myosuroides); experiment: Test A postemergence, blackgrass; format: in vivo; conditions: Alopecurus myosuroides, post-emergence, 240 h, 0 to 100 scale (0 no effect, 100 complete control), read-out: Plant response rating, Blackgrass; for pest or weed control at 31 g/ha: 31 g ai/ha; for pest or weed control at 125 g/ha: 125 g ai/ha
From the text: as §1, §2

[7] = tested on: ryegrass, Italian (Italian ryegrass, Lolium multiflorum); experiment: Test A preemergence, ryegrass, Italian; format: in vivo; conditions: Lolium multiflorum, pre-emergence, 240 h, 0 to 100 scale (0 no effect, 100 complete control), read-out: Plant response rating, Ryegrass, Italian; for pest or weed control at 31 g/ha: 31 g ai/ha; for pest or weed control at 125 g/ha: 125 g ai/ha
From the text: as §1, §2

[8] = tested on: rice (Oryza sativa); experiment: Test B flooded paddy test, rice; conditions: Oryza sativa, read-out: Plant response rating, Rice (0 to 100 scale, 0 is no effect, 100 is complete control)
[9] = tested on: barnyardgrass (Echinochloa crus-galli); experiment: Test A preemergence, barnyardgrass; format: in vivo; conditions: Echinochloa crus-galli, pre-emergence, 240 h, 0 to 100 scale (0 no effect, 100 complete control), read-out: Plant response rating, Barnyardgrass; for pest or weed control at 31 g/ha: 31 g ai/ha; for pest or weed control at 125 g/ha: 125 g ai/ha
From the text: as §1, §2

[10] = tested on: pigweed (Amaranthus retroflexus); experiment: Test A postemergence, pigweed; format: in vivo; conditions: Amaranthus retroflexus, post-emergence, 240 h, 0 to 100 scale (0 no effect, 100 complete control), read-out: Plant response rating, Pigweed; for pest or weed control at 31 g/ha: 31 g ai/ha; for pest or weed control at 125 g/ha: 125 g ai/ha
From the text: as §1, §2

[11] = tested on: barnyardgrass (Echinochloa crus-galli); experiment: Test A postemergence, barnyardgrass; format: in vivo; conditions: Echinochloa crus-galli, post-emergence, 240 h, 0 to 100 scale (0 no effect, 100 complete control), read-out: Plant response rating, Barnyardgrass; for pest or weed control at 31 g/ha: 31 g ai/ha; for pest or weed control at 125 g/ha: 125 g ai/ha
From the text: as §1, §2

[12] = tested on: wheat (Triticum aestivum); experiment: Test A postemergence, wheat; format: in vivo; conditions: Triticum aestivum, post-emergence, 240 h, 0 to 100 scale (0 no effect, 100 complete control), read-out: Plant response rating, Wheat; for plant injury at 31 g/ha: 31 g ai/ha; for plant injury at 125 g/ha: 125 g ai/ha
From the text: as §1, §2

[13] = tested on: barnyardgrass (Echinochloa crus-galli); experiment: Test B flooded paddy test, barnyardgrass; conditions: Echinochloa crus-galli, read-out: Plant response rating, Barnyardgrass (0 to 100 scale, 0 is no effect, 100 is complete control)
[14] = tested on: corn (Zea mays); experiment: Test A postemergence, corn; format: in vivo; conditions: Zea mays, post-emergence, 240 h, 0 to 100 scale (0 no effect, 100 complete control); for Corn plant response rating (crop injury, 0 = no effect, 100 = complete kill) at 31 g/ha: 31 g ai/ha; for Corn plant response rating (crop injury, 0 = no effect, 100 = complete kill) at 125 g/ha: 125 g ai/ha
From the text: as §1, §2

[15] = tested on: kochia (Kochia scoparia); experiment: Test A preemergence, kochia; format: in vivo; conditions: Bassia scoparia, pre-emergence, 240 h, 0 to 100 scale (0 no effect, 100 complete control), read-out: Plant response rating, Kochia; for pest or weed control at 31 g/ha: 31 g ai/ha; for pest or weed control at 125 g/ha: 125 g ai/ha
From the text: as §1, §2

[16] = tested on: ryegrass, Italian (Italian ryegrass, Lolium multiflorum); experiment: Test A postemergence, ryegrass, Italian; format: in vivo; conditions: Lolium multiflorum, post-emergence, 240 h, 0 to 100 scale (0 no effect, 100 complete control), read-out: Plant response rating, Ryegrass, Italian; for pest or weed control at 31 g/ha: 31 g ai/ha; for pest or weed control at 125 g/ha: 125 g ai/ha
From the text: as §1, §2

[17] = tested on: pigweed (Amaranthus retroflexus); experiment: Test A preemergence, pigweed; format: in vivo; conditions: Amaranthus retroflexus, pre-emergence, 240 h, 0 to 100 scale (0 no effect, 100 complete control), read-out: Plant response rating, Pigweed; for pest or weed control at 31 g/ha: 31 g ai/ha; for pest or weed control at 125 g/ha: 125 g ai/ha
From the text: as §1, §2

**Q.** How did the pest or weed control at 250 g/ha [1] turn out when O=C1Cc2cccc(Oc3ncc(Cl)cn3)c2C(CCCC(F)(F)F)O1 (stereo not drawn) [Compound 17, 8-[(5-Chloro-2-pyrimidinyl)oxy]-1,4-dihydro-1-(4,4,4-trifluorobutyl)-3H-2-benzopyran-3-one] was run?
**A.** 0%

**Q.** What about the pest or weed control at 31 g/ha [2] of the same compound?
**A.** 10%

**Q.** And the pest or weed control at 125 g/ha [2]?
**A.** 10%

**Q.** What about the pest or weed control at 31 g/ha [3] of the same compound?
**A.** 40%

**Q.** And the pest or weed control at 125 g/ha [3]?
**A.** 90%

**Q.** And the pest or weed control at 31 g/ha [4]?
**A.** 30%

**Q.** And the pest or weed control at 125 g/ha [4]?
**A.** 70%

**Q.** And the pest or weed control at 31 g/ha ([5]; 31 g ai/ha)?
**A.** 0%

**Q.** And the pest or weed control at 125 g/ha ([5]; 125 g ai/ha)?
**A.** 0%

**Q.** What about the pest or weed control at 31 g/ha [6] of the same compound?
**A.** 20%

**Q.** What about the pest or weed control at 125 g/ha [6] of the same compound?
**A.** 50%

**Q.** What about the pest or weed control at 31 g/ha [7] of the same compound?
**A.** 0%

**Q.** And the pest or weed control at 125 g/ha [7]?
**A.** 10%

**Q.** What about the plant injury at 250 g/ha [8] of the same compound?
**A.** 0%

**Q.** And the pest or weed control at 31 g/ha [9]?
**A.** 10%

**Q.** What about the pest or weed control at 125 g/ha [9] of the same compound?
**A.** 50%

**Q.** What about the pest or weed control at 31 g/ha [10] of the same compound?
**A.** 50%

**Q.** What about the pest or weed control at 125 g/ha [10] of the same compound?
**A.** 70%

**Q.** What about the pest or weed control at 31 g/ha [11] of the same compound?
**A.** 10%

**Q.** What about the pest or weed control at 125 g/ha [11] of the same compound?
**A.** 70%

**Q.** What about the plant injury at 31 g/ha [12] of the same compound?
**A.** 0%

**Q.** And the plant injury at 125 g/ha [12]?
**A.** 10%

**Q.** And the pest or weed control at 250 g/ha [13]?
**A.** 0%

**Q.** What about the Corn plant response rating (crop injury, 0 = no effect, 100 = complete kill) at 31 g/ha [14] of the same compound?
**A.** 20%

**Q.** And the Corn plant response rating (crop injury, 0 = no effect, 100 = complete kill) at 125 g/ha [14]?
**A.** 20%

**Q.** What about the pest or weed control at 31 g/ha [15] of the same compound?
**A.** 0%

**Q.** What about the pest or weed control at 125 g/ha [15] of the same compound?
**A.** 60%

**Q.** And the pest or weed control at 31 g/ha [16]?
**A.** 0%

**Q.** What about the pest or weed control at 125 g/ha [16] of the same compound?
**A.** 10%

**Q.** And the pest or weed control at 31 g/ha [17]?
**A.** 60%

**Q.** What about the pest or weed control at 125 g/ha [17] of the same compound?
**A.** 100%

**Q.** How did the pest or weed control at 250 g/ha [1] turn out when FC(F)(F)CCC1COc2cccc(Oc3ncc(Cl)cn3)c21 (stereo not drawn) [Compound 36, 5-Chloro-2-[[2,3-dihydro-3-(3,3,3-trifluoropropyl)-4-benzofuranyl]oxy]pyrimidine] was run?
**A.** 50%

**Q.** What about the pest or weed control at 31 g/ha [2] of the same compound?
**A.** 0%

**Q.** What about the pest or weed control at 125 g/ha [2] of the same compound?
**A.** 0%

**Q.** And the pest or weed control at 31 g/ha [3]?
**A.** 10%

**Q.** What about the pest or weed control at 125 g/ha [3] of the same compound?
**A.** 10%

**Q.** And the pest or weed control at 31 g/ha [4]?
**A.** 30%

**Q.** What about the pest or weed control at 125 g/ha [4] of the same compound?
**A.** 50%

**Q.** What about the pest or weed control at 31 g/ha [6] of the same compound?
**A.** 0%

**Q.** What about the pest or weed control at 125 g/ha [6] of the same compound?
**A.** 0%

**Q.** What about the pest or weed control at 31 g/ha [7] of the same compound?
**A.** 0%

**Q.** And the pest or weed control at 125 g/ha [7]?
**A.** 0%

**Q.** And the plant injury at 250 g/ha [8]?
**A.** 0%

**Q.** And the pest or weed control at 31 g/ha [9]?
**A.** 0%

**Q.** What about the pest or weed control at 125 g/ha [9] of the same compound?
**A.** 0%

**Q.** And the pest or weed control at 31 g/ha [10]?
**A.** 10%

**Q.** And the pest or weed control at 125 g/ha [10]?
**A.** 10%

**Q.** What about the pest or weed control at 31 g/ha [11] of the same compound?
**A.** 0%

**Q.** And the pest or weed control at 125 g/ha [11]?
**A.** 10%

**Q.** And the plant injury at 31 g/ha [12]?
**A.** 0%

**Q.** What about the plant injury at 125 g/ha [12] of the same compound?
**A.** 0%

**Q.** And the pest or weed control at 250 g/ha [13]?
**A.** 0%

**Q.** And the Corn plant response rating (crop injury, 0 = no effect, 100 = complete kill) at 31 g/ha [14]?
**A.** 0%

**Q.** And the Corn plant response rating (crop injury, 0 = no effect, 100 = complete kill) at 125 g/ha [14]?
**A.** 0%

**Q.** And the pest or weed control at 31 g/ha [15]?
**A.** 0%

**Q.** What about the pest or weed control at 125 g/ha [15] of the same compound?
**A.** 0%

**Q.** And the pest or weed control at 31 g/ha [16]?
**A.** 0%

**Q.** And the pest or weed control at 125 g/ha [16]?
**A.** 0%

**Q.** And the pest or weed control at 31 g/ha [17]?
**A.** 0%

**Q.** What about the pest or weed control at 125 g/ha [17] of the same compound?
**A.** 0%
